From patent US20150080475A1, “Memantine Protects Inflammation-Related Degeneration of Dopamine Neurons Through Inhibition of Over-Activated Microglia and Release of Neurotrophic Factors From Astroglia” (priority 2009, published 2015)

Tested on: DA neurons
Assay: MPP+-induced reduction in DA uptake in neuron-enriched cultures
Assay type: cell-based
Conditions: MPP+ 0.25 μM, seven days, neuron-enriched cultures
Description: Mesencephalic neuron-glia cultures were seeded (5×10^5/well) in 24 well plates precoated with poly D-lysine. Thirty-six hours postseeding, 5-10 μM cytosine β-D-arabinofuranoside was added to the culture. After 2 days, the cytosine β-D-arabinofuranoside was removed and replaced with fresh media. Neuron-enriched cultures are 98% pure, as indicated by ICC staining with OX-42 and GFAP antibodies. Neuron-enriched cultures were treated 7 days post-seeding. For microglia add-back cultures, the microglia were plated on top of the neuron-enriched culture at 6 days postseeding, resulting in the addition of either 10% (500 μL of 1×10^5) or 20% (500 μL of 2×10^5) microglia. […]
Cells were incubated in Krebs-Ringer buffer (16 mM NaH2PO4, 1.2 mM MgSO4, 1.3 mM EDTA, […], for 21 min at 37° C. with 1 μM [^3H] DA. Nonspecific uptake was blocked for DA with 10 μM mazindole. After incubation, cells were washed three times with 1 mL/well of ice-cold Krebs-Ringer buffer. Cells were then lysed with 0.5 mL/well of 1 N NaOH and mixed with 15 mL of scintillation fluid. Radioactivity was measured on a scintillation counter, where specific [^3H] DA uptake was calculated by subtracting the mazindole.
To determine whether the neuroprotective effect of MMT was dependent on the presence of glial cells, the effects of MMT on the neuron-enriched cultures were determined. […]

In the case of C[n+]1ccc(-c2ccccc2)cc1 [MPP^+], the “reduction of DA uptake compared with control cultures” value is reported as 31%.
